Data on two compounds can be found in publication PMC6709224, “PIM-Related Kinases Selectively Regulate Olfactory Sensations in Caenorhabditis elegans” (eNeuro, 2019).

Each structure is given as a SMILES string.

What all share (format): biochemical
For assay [1], the target named is T1, PIM-1 (Homo sapiens, UniProt P11309).
T1 construct: gene PIM1; full-length short isoform (313 residues, recalled), GST fusion expressed in bacteria
Put plainly: radioactive in vitro kinase assay (autophosphorylation and NFATC1 […]-418 phosphorylation). The following applies: 10 µM inhibitor, 10-20 min pre-incubation, gamma-32P-ATP, 0.1% DMSO control.

Assay [2] addresses T2, PRK-2 (Caenorhabditis elegans, UniProt Q20443).
T2 construct: full-length, GST fusion in pGEX-6P-2, expressed in bacteria
T2 sequence (Q20443 1-441): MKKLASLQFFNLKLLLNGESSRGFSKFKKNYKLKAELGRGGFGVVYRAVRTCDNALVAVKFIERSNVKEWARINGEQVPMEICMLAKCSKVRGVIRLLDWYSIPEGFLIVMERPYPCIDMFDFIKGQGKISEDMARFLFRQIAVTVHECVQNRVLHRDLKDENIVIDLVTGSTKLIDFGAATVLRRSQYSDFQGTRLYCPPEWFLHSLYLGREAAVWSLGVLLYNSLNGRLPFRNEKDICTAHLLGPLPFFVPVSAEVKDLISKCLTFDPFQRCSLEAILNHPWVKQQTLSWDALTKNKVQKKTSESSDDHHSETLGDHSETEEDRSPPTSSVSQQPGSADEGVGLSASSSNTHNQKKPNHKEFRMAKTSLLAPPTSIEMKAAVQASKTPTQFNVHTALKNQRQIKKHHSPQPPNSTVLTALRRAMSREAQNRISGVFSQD
The description is as above. The following applies: 10 µM inhibitor, 10-20 min pre-incubation, gamma-32P-ATP, 0.1% DMSO control.

The target in assay [3] is T1, PIM-1. The assay can be described thus: radioactive in vitro kinase assay, autoradiography. The conditions noted are these: labelled compound; autophosphorylation and GST-NFATC1 (1-418) as acceptor.
The target in assay [4] is T2, PRK-2. The assay can be described thus: radioactive in vitro kinase assay, autoradiography. The following applies: labelled compound; autophosphorylation and GST-NFATC1 (1-418) as acceptor.

T1 sequence (P11309 whole entry, the tested form may be a part, canonical isoform): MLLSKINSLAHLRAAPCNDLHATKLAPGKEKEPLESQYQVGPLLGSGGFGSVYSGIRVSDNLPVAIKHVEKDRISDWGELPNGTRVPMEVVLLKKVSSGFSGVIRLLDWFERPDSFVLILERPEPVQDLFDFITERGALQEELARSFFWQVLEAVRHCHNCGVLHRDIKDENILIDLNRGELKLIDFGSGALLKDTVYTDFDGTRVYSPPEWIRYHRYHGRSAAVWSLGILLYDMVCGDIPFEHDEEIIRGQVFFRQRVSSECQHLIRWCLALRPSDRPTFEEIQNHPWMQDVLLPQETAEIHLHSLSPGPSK

Regarding `O=Cc1c[nH]c2c1ccc1c3ccccc3[nH]c12` [DHPCC-9], the “relative phosphorylation at 10 μM” value is “DHPCC-9 was able to inhibit autophosphorylation of not only PIM-1, but also PRK-2” in assay [1] and “DHPCC-9 was able to inhibit autophosphorylation of not only PIM-1, but also PRK-2” in assay [2].

Regarding `Nc1ncnc2c1ncn2[C@@H]1O[C@H](COP(=O)(O)OP(=O)(O)OP(=O)(O)O)[C@@H](O)[C@H]1O` [γ-32P-ATP], the “radioactive in vitro kinase assay, autoradiography” value is “both PIM-1 and PRK-2 were able to autophosphorylate themselves” in assay [3]; “both PIM-1 and PRK-2 were able to autophosphorylate themselves” in assay [4].
